# US9247759B2, “Identification of human T2R receptors that respond to bitter compounds that elicit the bitter taste in compositions, and the use thereof in assays to identify compounds that inhibit (block) bitter taste in compositions and use thereof” (SENOMYX, INC., priority 2007, dated 2016)
# Read-outs that look alike come from different tables or passages of the source.
# Columns and labels:
# hT2R14 = hT2R14 (Homo sapiens (Human), UniProt Q9NYV8); test: hT2R14 antagonist high-throughput FLIPR assay, stable cell line with G16g44, agonist aristolochic acid; format: cell-based
# Chain of hT2R14 (Q9NYV8 whole entry): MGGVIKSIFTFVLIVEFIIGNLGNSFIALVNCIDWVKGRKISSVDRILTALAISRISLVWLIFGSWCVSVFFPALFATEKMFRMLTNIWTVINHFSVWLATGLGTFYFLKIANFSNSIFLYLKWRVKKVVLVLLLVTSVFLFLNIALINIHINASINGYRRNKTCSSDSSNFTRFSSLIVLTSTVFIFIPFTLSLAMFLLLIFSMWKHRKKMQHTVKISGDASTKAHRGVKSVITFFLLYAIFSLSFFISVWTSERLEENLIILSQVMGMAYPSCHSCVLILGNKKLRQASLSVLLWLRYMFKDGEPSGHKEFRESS
# Experimental: The inventors also used the automated fluorimetric […] system FLIPR using a slightly different protocol. A HEK293 cell line stably expressing G16gust44 was transfected with a hT2R expression plasmid, 24 hours later, the cells are loaded and analyzed on FLIPR.
# After a ligand is identified for a particular hT2R, a HEK293 cell line stably expressing both the hT2R and G16gust44 are generated, facilitating future screening assays to identify other ligands that activate the particular hT2R or which modulate (block or enhance) the activation of this hT2R by another bitter ligand such as a bitter compound contained in coffee. This avoids the need for transient transfection.
# To identify antagonists, cell lines stably expressing hT2R8 and hT2R14, respectively, together with the promiscuous chimeric G16g44 protein were generated as described in previous patent applications. A high-throughput assay was established using the stable cell lines and FLIPR (Fluorescent Imaging Plate Reader). An agonist of hT2R8 or hT2R14 was used to activate the receptors up to 70-80% of their respective maximal activity. For hT2R8, the agonist used was andrographolide (200 […]); for hT2R14, it was aristolochic acid (3 μM). To identify antagonists, compounds with diverse chemical structures were added together with the agonist.
# hT2R8 = hT2R8 (Homo sapiens (Human), UniProt Q9NYW2); test: hT2R8 antagonist high-throughput FLIPR assay, stable cell line with G16g44, agonist andrographolide; format: cell-based
# Chain of hT2R8 (Q9NYW2 whole entry): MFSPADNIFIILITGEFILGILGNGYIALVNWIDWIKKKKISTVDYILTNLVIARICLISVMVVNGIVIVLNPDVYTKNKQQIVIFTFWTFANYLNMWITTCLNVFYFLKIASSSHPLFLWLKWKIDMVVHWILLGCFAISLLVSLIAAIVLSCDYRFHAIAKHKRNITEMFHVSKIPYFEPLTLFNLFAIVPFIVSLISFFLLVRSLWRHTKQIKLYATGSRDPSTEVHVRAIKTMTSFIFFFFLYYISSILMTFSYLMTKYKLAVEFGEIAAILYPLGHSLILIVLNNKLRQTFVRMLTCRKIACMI
# Summary of the method: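 Antagonist screen: compounds co-applied with agonist andrographolide at 200 μM, a dose giving 70–80% of maximal hT2R8 activation. Fluorescence measured by FLIPR in a stable HEK293 line expressing both hT2R8 and the promiscuous G16g44 protein.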
# [1] = table after Example 12-37, read-out: hT2R8 IC50
# [2] = read-out: IC50 on hT2R8 bitter receptor
"IC50 (hT2R14; Table C, read-out: hT2R14 IC50)",SMILES,also measured
6270 nM,"COc1ccc(C2Cc3ccccc3CN2S(=O)(=O)c2ccc(C(=O)O)cc2)cc1 (stereo not drawn) [Example 5-161, 4-(3-(4-methoxyphenyl)-3,4-dihydroisoquinolin-2(1H)-ylsulfonyl)benzoic acid]",–
4870 nM,"Cc1cc(NC(=S)N(Cc2ccccc2C)CC2CCC(C(=O)O)CC2)ccc1Cl (stereo not drawn) [Example 5-114, 4-((3-(4-chloro-3-methylphenyl)-1-(2-methylbenzyl)thioureido)methyl) cyclohexanecarboxylic acid]",–
–,"O=C(O)c1ccc(CN(Cc2cccc(F)c2)S(=O)(=O)c2ccc(O)cc2)cc1 [Example 5-45, 4-((N-(3-fluorobenzyl)-4-hydroxyphenylsulfonamido)methyl)benzoic acid]",IC50 (hT2R14; read-out: IC50 on hT2R14 bitter receptor): 459 nM
2340 nM,"CCOC(=O)C1CCC(CN(Cc2ccccc2)S(=O)(=O)c2ccc(Br)cc2)CC1 (stereo not drawn) [Example 5-118, ethyl 4-((N-benzyl-4-bromophenylsulfonamido)methyl) cyclohexanecarboxylate]",–
109 nM,"Cc1ccc(CN(CC2CCC(C(=O)O)CC2)S(=O)(=O)c2ccc(C)cc2)cc1 (stereo not drawn) [Example 5-126, 4-((4-methyl-N-(4-methylbenzyl)phenylsulfonamido)methyl) cyclohexanecarboxylic acid]",–
–,"Cn1c(=O)c2cc(S(=O)(=O)Nc3ccc(Cl)cc3F)ccc2n(C)c1=O [Example 6-23, N-(4-chloro-2-fluorophenyl)-1,3-dimethyl-2,4-dioxo-1,2,3,4-tetrahydroquinazoline-6-sulfonamide]","IC50 (hT2R14; Table D, read-out: hT2R14 IC50): 9700 nM"
8850 nM,"COc1ccc(CN(CC2CCC(C(=O)O)CC2)C(=S)Nc2ccccc2OC)cc1 (stereo not drawn) [Example 5-112, 4-((1-(4-methoxybenzyl)-3-(2-methoxyphenyl)thioureido)methyl) cyclohexanecarboxylic acid]",–
672 nM,"CCOC(=O)C1CCC(CN(Cc2ccccc2)S(=O)(=O)c2ccc(Cl)cc2)CC1 (stereo not drawn) [Example 5-119, ethyl 4-((N-benzyl-4-chlorophenylsulfonamido)methyl) cyclohexanecarboxylate]",–
842 nM,"CC(=O)Nc1ccc(S(=O)(=O)N(Cc2ccc(F)cc2)CC2CCC(C(=O)O)CC2)cc1 (stereo not drawn) [Example 5-124, 4-((4-acetamido-N-(4-fluorobenzyl)phenylsulfonamido)methyl) cyclohexanecarboxylic acid]",–
2570 nM,"CCOC(=O)C1CCC(CN(Cc2cccc(Br)c2)S(=O)(=O)c2ccc3c(c2)OCCO3)CC1 (stereo not drawn) [Example 5-116, ethyl 4-((N-(3-bromobenzyl)-2,3-dihydrobenzo[b][1,4]dioxine-6-sulfonamido)methyl) cyclohexanecarboxylate]",–
–,"Cn1c(=O)c2cc(S(=O)(=O)NC3CCCCC3)ccc2n(C)c1=O [Example 6-16, N-cyclohexyl-1,3-dimethyl-2,4-dioxo-1,2,3,4-tetrahydroquinazoline-6-sulfonamide]","IC50 (hT2R14; Table D, read-out: hT2R14 IC50): 7240 nM"
–,"Cc1c(F)cccc1NS(=O)(=O)c1ccc2c(c1)c(=O)n(C)c(=O)n2C [Example 6-18, N-(3-fluoro-2-methylphenyl)-1,3-dimethyl-2,4-dioxo-1,2,3,4-tetrahydroquinazoline-6-sulfonamide]","IC50 (hT2R14; Table D, read-out: hT2R14 IC50): 935 nM"
–,"Cn1c(=O)c2c(SCC(=O)N3CCCCCC3)ccnc2n(C)c1=O [Example 6-28, 5-(2-(azepan-1-yl)-2-oxoethylthio)-1,3-dimethylpyrido[2,3-d]pyrimidine-2,4(1H,3H)-dione]","IC50 (hT2R14; Table D, read-out: hT2R14 IC50): 2380 nM"
2220 nM,"COc1ccc(CN(Cc2ccccc2)S(=O)(=O)c2cccc(OC)c2)cc1 [Example 5-122, N-benzyl-3-methoxy-N-(4-methoxybenzyl)benzenesulfonamide]",–
–,"Cc1nc(SCC(=O)N2CCOCC2)c2c(=O)n(C)c(=O)n(C)c2n1 [Example 6-25, 1,3,7-trimethyl-5-(2-morpholino-2-oxoethylthio)pyrimido[4,5-d]pyrimidine-2,4(1H,3H)-dione]","IC50 (hT2R14; Table D, read-out: hT2R14 IC50): 1010 nM"
–,"CCc1nc(SCC(=O)N2CCC(C)CC2)c2c(=O)n(C)c(=O)n(C)c2n1 [Example 6-26, 7-ethyl-1,3-dimethyl-5-(2-(4-methylpiperidin-1-yl)-2-oxoethylthio)pyrimido[4,5-d]pyrimidine-2,4(1H,3H)-dione]","IC50 (hT2R14; Table D, read-out: hT2R14 IC50): 721 nM"
334 nM,"CCOC(=O)C1CCC(CN(Cc2ccccc2)S(=O)(=O)c2ccc(NC(C)=O)cc2)CC1 (stereo not drawn) [Example 5-115, ethyl 4-((4-acetamido-N-benzylphenylsulfonamido)methyl) cyclohexanecarboxylate]",–
–,"CC(=O)CSc1nc(C2CCCC2)nc2c1c(=O)n(C)c(=O)n2C [Example 6-15, 7-cyclopentyl-1,3-dimethyl-5-(2-oxopropylthio)pyrimido[4,5-d]pyrimidine-2,4(1H,3H)-dione]","IC50 (hT2R14; Table D, read-out: hT2R14 IC50): 5430 nM"
–,"Cc1noc(C)c1Cn1cc(N2C(=O)N(Cc3cccc(C(=O)O)c3)C(C)(C)C2=O)cn1 [Example 12-73, 3-((3-(1-((3,5-dimethylisoxazol-4-yl)methyl)-1H-pyrazol-4-yl)-5,5-dimethyl-2,4-dioxoimidazolidin-1-yl)methyl)benzoic acid]",IC50 (hT2R8; [1]): 0.46 µM
–,"Cc1noc(C)c1Cn1cc(N2C(=O)N(Cc3ccc(C#N)cc3)C(C)(C)C2=O)cn1 [Example 12-79, 4-((3-(1-((3,5-dimethylisoxazol-4-yl)methyl)-1H-pyrazol-4-yl)-5,5-dimethyl-2,4-dioxoimidazolidin-1-yl)methyl)benzonitrile]",IC50 (hT2R8; [1]): 0.05 µM
–,"Cc1ccc(CN2C(=O)N(c3cnn(Cc4c(C)noc4C)c3)C(=O)C2(C)C)c(C)c1 [Example 12-86, 1-(2,4-dimethylbenzyl)-3-(1-((3,5-dimethylisoxazol-4-yl)methyl)-1H-pyrazol-4-yl)-5,5-dimethylimidazolidine-2,4-dione]",IC50 (hT2R8; [1]): 1.89 µM
–,"COCCOc1cccc(CN2C(=O)N(c3cnn(Cc4c(C)noc4C)c3)C(=O)C2(C)C)c1 [Example 12-80, 3-(1-((3,5-dimethylisoxazol-4-yl)methyl)-1H-pyrazol-4-yl)-1-(3-(2-methoxyethoxy)benzyl)-5,5-dimethylimidazolidine-2,4-dione]",IC50 (hT2R8; [1]): 0.71 µM
–,"Cc1noc(C)c1Cn1cc(N2C(=O)N(Cc3ccc(F)c(O)c3)C(C)(C)C2=O)cn1 [Example 12-19, 3-(1-((3,5-dimethylisoxazol-4-yl)methyl)-1H-pyrazol-4-yl)-1-(4-fluoro-3-hydroxybenzyl)-5,5-dimethylimidazolidine-2,4-dione]",IC50 (hT2R8; [2]): 0.01 µM
–,"Cc1noc(C)c1Cn1cc(NC(=O)c2ccc3c(c2)OC(F)(F)O3)cn1 [Example 4-78, N-(1-((3,5-dimethylisoxazol-4-yl)methyl)-1H-pyrazol-4-yl)-2,2-difluorobenzo[d][1,3]dioxole-5-carboxamide]","IC50 (hT2R8; Table A, read-out: hT2R8 IC50): 1.3 µM"
–,"Cc1noc(C)c1Cn1cc(N2C(=O)CN(Cc3ccccc3C(F)(F)F)C2=O)cn1 [Example 10-22, 3-(1-((3,5-dimethylisoxazol-4-yl)methyl)-1H-pyrazol-4-yl)-1-(2-(trifluoromethyl)benzyl)imidazolidine-2,4-dione]","IC50 (hT2R8; table after Example 10-97, read-out: hT2R8 IC50): 0.221 µM; IC50 (hT2R8; unit uM, read-out: IC50 on hT2R08 bitter receptor): 0.2 µM"
–,"Cc1noc(C)c1Cn1cc(N2C(=O)NC(CO)C2=O)cn1 (stereo not drawn) [Example 10-97, 3-(1-((3,5-dimethylisoxazol-4-yl)methyl)-1H-pyrazol-4-yl)-5-(hydroxymethyl)imidazolidine-2,4-dione]",IC50 (hT2R8; [2]): 3 µM
–,"COc1ccc(CN2C(=O)N(c3cnn(Cc4c(C)noc4C)c3)C(=O)C23CC3)cc1OC [Example 12-13, 4-(3,4-dimethoxybenzyl)-6-(1-((3,5-dimethylisoxazol-4-yl)methyl)-1H-pyrazol-4-yl)-4,6-diazaspiro[2.4]heptane-5,7-dione]",IC50 (hT2R8; [2]): 0.02 µM

SMILES,"IC50 (hT2R14; Table C, read-out: hT2R14 IC50)",also measured
"Cc1ccccc1CN(Cc1ccccc1)S(=O)(=O)c1ccc(C(=O)O)cc1 [Example 5-140, 4-(N-benzyl-N-(2-methylbenzyl)sulfamoyl)benzoic acid]",2930 nM,–
"O=C(O)c1ccc(S(=O)(=O)N(Cc2ccccc2)Cc2ccc(Cl)cc2)cc1 [Example 5-137, 4-(N-benzyl-N-(4-chlorobenzyl)sulfamoyl)benzoic acid]",3980 nM,–
"CCc1ccc(CN(Cc2ccccc2)S(=O)(=O)c2ccc(C(=O)O)cc2)cc1 [Example 5-143, 4-(N-benzyl-N-(4-ethylbenzyl)sulfamoyl)benzoic acid]",8580 nM,–
"O=C(O)c1ccc(S(=O)(=O)N(Cc2ccccc2)Cc2cccc(F)c2)cc1 [Example 5-139, 4-(N-benzyl-N-(3-fluorobenzyl)sulfamoyl)benzoic acid]",2310 nM,–
"N#Cc1ccccc1CN(Cc1ccccc1)S(=O)(=O)c1ccc(C(=O)O)cc1 [Example 5-147, 4-(N-benzyl-N-(2-cyanobenzyl)sulfamoyl)benzoic acid]",4630 nM,–
"O=C(O)c1ccc(S(=O)(=O)N(Cc2ccccc2)Cc2cccc(Cl)c2)cc1 [Example 5-142, 4-(N-benzyl-N-(3-chlorobenzyl)sulfamoyl)benzoic acid]",4290 nM,–
"COc1ccc(CN(Cc2ccccc2)S(=O)(=O)c2ccc(C(=O)O)cc2)cn1 [Example 5-145, 4-(N-benzyl-N-((6-methoxypyridin-3-yl)methyl)sulfamoyl)benzoic acid]",3260 nM,–
"COc1ccccc1CN(Cc1ccccc1)S(=O)(=O)c1ccc(C(=O)O)cc1 [Example 5-133, 4-(N-benzyl-N-(2-methoxybenzyl)sulfamoyl)benzoic acid]",5060 nM,–
